Test results as given in patent US7589123B2, “Chemical compounds” (Phytopharm PLC, priority 2006, dated 2009).

Columns and labels:
[1] = test system: ovalbumin-sensitised mice; assay: Ovalbumin-sensitised mice, a chronic model of asthma in vivo (Assay 8); conditions: mean ± s.e.mean, oral gavage 20 days: 2 3 mg/kg/day, 32 30 mg/kg/day, budesonide 1 mg/kg/day, montelukast 10 mg/kg/day; for Eosinophil infiltration / IL-4 concentration / IL-13 concentration: BAL fluid day 55; for Eosinophil infiltration: sensitised 192.1 ± 33.2; for IL-4 concentration: sensitised 231.2 ± 62.4; for IL-13 concentration: sensitised 241.9 ± 89.3; for Histopathology score: lung remodelling, day 55, sensitised 541.6 ± 36.1; for Increase in penH: methacholine challenge, day 54, sensitised 193.0 ± 61.7
Method: Mice (BALB/c from Harlan-Olac) were sensitised to ovalbumin using two interperitoneal injections of ovalbumin (10 μg) and alum (200 μl) on day 1 and 14 followed by a 20 min, daily exposure to a ovalbumin aerosol (5%) on days 19-23 and then a thrice weekly 20 min, exposure to a ovalbumin aerosol (5%) on days 24-55. […] On day 54, mice were placed in BUXCO four chamber whole body plethysmographs and breathing-associated pressure changes were recorded which were then used to calculate enhanced pause (penH), a measurement of airways resistance, in response to a methacholine challenge.
On day 55 the mice were killed and brochoalveolar lavage (BAL) fluid was collected and cytospins prepared to measure eosinophil infiltration. In addition, concentrations of interleukin-4 (IL-4) and interleukin-13 (IL-13) were measured in the BAL fluid. Furthermore, lung samples were taken, examined by a histopathologist and scored using a grading system to describe the degree of lung remodelling.

[2] = test system: histamine-induced contractions in guinea pig ileum; assay: Inhibition of histamine-induced contractions in guinea pig ileum (Assay 3); conditions: Cavia porcellus, histamine 1.7 μM, read-out: Inhibition of histamine-induced contraction (%)
In short: (§1)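 Isolated male guinea pig ileum strips in Krebs at 32° C, pH 7.4, 1 g resting tension, isotonic recording. Contraction to test compound (3 and 30 μM) alone recorded, then inhibition of responses to histamine 1.7 μM or 5-HT 2.6 μM (~EC60-70, 5 min) measured in its continued presence.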

[3] = test system: 5-HT-induced contractions in guinea pig ileum; assay: Inhibition of 5-HT-induced contractions in guinea pig ileum (Assay 3); conditions: Cavia porcellus, 5-HT 2.6 μM, read-out: Inhibition of 5-HT-induced contraction (%)
In short: as §1

[4] = test system: IL-1α-induced PGE2 release; assay: IL-1α-induced PGE2 release in human diploid lung fibroblasts (WI-38) (Assay 5); type: cell-based; conditions: Homo sapiens, WI-38 cells, IL-1α 1 nM, overnight
In short: (§2)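 WI-38 fibroblasts stimulated overnight at 37 °C with 1 nM IL-1α plus test compound at 3 and 30 μM in MEM with 10% FBS, pH 7.3; released PGE2 in supernatant quantified by radioimmunoassay as percent inhibition. Viability then checked by Alamar Blue, 4 h at 37 °C, fluorescence ex 530/em 590 nm.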

[5] = test system: WI-38 cells; assay: Viability of WI-38 cells, Alamar Blue (Assay 5); type: cell-based, human
In short: as §2

Compound: COc1cc(C=CC(=O)CC(=O)c2ccc(Cl)cc2Cl)ccc1O [Compound 56, 1-(2,4-Dichlorophenyl)-5-(4-hydroxy-3-methoxyphenyl)pent-4-ene-1,3-dione]
- melting point: 86 to 87 °C

Compound: COc1cc(/C=C/C(=O)CC(=O)c2ccc(Cl)c(C)c2)ccc1O [Compound 95, (E)-1-(4-Chloro-3-methylphenyl)-5-(4-hydroxy-3-methoxyphenyl)pent-4-ene-1,3-dione]
- melting point: 68 to 70 °C

Compound: COc1cc(C=CC(=O)CC(=O)c2cccc(Cl)c2)ccc1O [Compound 54, 1-(3-Chlorophenyl)-5-(4-hydroxy-3-methoxyphenyl)pent-4-ene-1,3-dione]
- melting point: 54 to 55 °C

Compound: COc1cc(/C=C/C(=O)CC(=O)C2CC2)ccc1O [Compound 37, (E)-1-Cyclopropyl-5-(4-hydroxy-3-methoxyphenyl)-pent-4-ene-1,3-dione]
- melting point: 74.5 to 79 °C

Compound: CCCC1O[C@@H]2C[C@H]3[C@@H]4CCC5=CC(=O)C=C[C@]5(C)[C@H]4[C@@H](O)C[C@]3(C)[C@]2(C(=O)CO)O1 (some centres unmarked) [budesonide, reference compound]
- Eosinophil infiltration [1]: 38.4 ± 5.4% of control
- IL-4 concentration [1]: 144.2 ± 59.7% of control
- IL-13 concentration [1]: 199.3 ± 110.1% of control
- Histopathology score [1]: 200.0 ± 27.6% of control
- Increase in penH [1]: 184.6 ± 27.7% of control

Compound: COc1cc(CCC(=O)CC(=O)c2ccccc2)ccc1OCCN.Cl
- melting point: 80 °C

Compound: CCOc1cc(/C=C/C(=O)CC(=O)c2ccccc2)ccc1O [Compound 106, (E)-5-(3-Ethoxy-4-hydroxyphenyl)-1-phenylpent-4-ene-1,3-dione]
- melting point: 110 to 112 °C

Compound: COc1cc(/C=C/C(=O)CC(=O)c2ccc3ccccc3c2)c(Cl)cc1O [Compound 105, (E)-5-(2-Chloro-4-hydroxy-5-methoxyphenyl)-1-(naphthalene-3-yl)pent-4-ene-1,3-dione]
- melting point: 134 °C

Compound: COc1cc(/C=C/C(=O)CC(=O)c2ccccc2C)ccc1O [Compound 103, (E)-5-(4-Hydroxy-3-methoxyphenyl)-1-o-tolylpent-4-ene-1,3-dione]
- melting point: 96 °C

Compound: COC(=O)c1ccc(C(=O)CC(=O)/C=C/c2ccc(O)c(OC)c2)cc1 [Compound 57, Methyl 4-[(E)-1,3-dioxo-5-(4-hydroxy-3-methoxyphenyl)pent-4-enyl]benzoate]
- melting point: 187 to 189 °C

Compound: COc1cc(/C=C/C(=O)CC(=O)c2ccc(O)c(OC)c2)ccc1O [Compound 47, (E)-1,5-Bis-(4-hydroxy-3-methoxyphenyl)-pent-4-ene-1,3-dione]
- inhibition at 3 µM ([2]; 3 μM): 5%
- inhibition at 30 µM ([2]; 30 μM): 23%
- inhibition at 3 µM ([3]; 3 μM): 6%
- inhibition at 30 µM ([3]; 30 μM): 33%
- inhibition at 3 µM ([4]; 3 μM): 10%
- inhibition at 30 µM ([4]; 30 μM): 109%
- Decrease in cell viability (%) ([5]; 3 μM): 1%
- Decrease in cell viability (%) ([5]; 30 μM): 11%
- melting point: 170 to 172 °C

Compound: COc1cc(/C=C/C(=O)C(C)(C)C(=O)C(C)(C)C)ccc1O [Compound 91, (E)-1-(4-Hydroxy-3-methoxyphenyl)-4,4,6,6-tetramethylhept-1-ene-3,5-dione]
- melting point: 98 to 99 °C

Compound: COc1cc(/C=C/C(=O)CC(=O)c2ccc(Cl)cc2C)ccc1O [Compound 96, (E)-1-(4-Chloro-2-methylphenyl)-5-(4-hydroxy-3-methoxyphenyl)pent-4-ene-1,3-dione]
- melting point: 78 °C

Compound: CC(C)(O)c1ccccc1CC[C@@H](SCC1(CC(=O)O)CC1)c1cccc(/C=C/c2ccc3ccc(Cl)cc3n2)c1 [montelukast, reference compound]
- Eosinophil infiltration [1]: 124.3 ± 24.8% of control
- IL-4 concentration [1]: 58.2 ± 37.2% of control
- IL-13 concentration [1]: 73.2 ± 55.3% of control
- Histopathology score [1]: 450.0 ± 38.25% of control
- Increase in penH [1]: 187.6 ± 31.9% of control

Compound: COc1cc(C=CC(=O)CC(=O)c2ccc(Cl)c(Cl)c2)ccc1O [Compound 55, 1-(3,4-Dichlorophenyl)-5-(4-hydroxy-3-methoxyphenyl)pent-4-ene-1,3-dione]
- melting point: 78 to 80 °C

Compound: COc1cc(/C=C/C(=O)CC(=O)c2ccc(C(C)(C)C)cc2)ccc1O [Compound 102, (E)-1-(4-tert-Butylphenyl)-5-(4-hydroxy-3-methoxyphenyl)pent-4-ene-1,3-dione]
- melting point: 87 to 88 °C

Compound: COc1cc(/C=C/C(=O)CC(=O)c2cccc(C)c2)ccc1O [Compound 104, (E)-5-(4-Hydroxy-3-methoxyphenyl)-1-m-tolylpent-4-ene-1,3-dione]
- melting point: 52 °C

Compound: COc1cc(/C=C/C(=O)CC(=O)c2ccc(C#N)cc2)ccc1O [Compound 101, (E)-1-(4-Cyanophenyl)-5-(4-hydroxy-3-methoxyphenyl)pent-4-ene-1,3-dione]
- melting point: 128 to 130 °C

Compound: COc1cc(/C=C/C(=O)CC(=O)c2ccccc2Cl)ccc1O [Compound 94, (E)-1-(2-Chlorophenyl)-5(4-hydroxy-3-methoxyphenyl)pent-4-ene-1,3-dione]
- melting point: 89 °C

Compound: COc1cc(C=CC(=O)CC(=O)c2ccc(Cl)cc2)ccc1O [Compound 53, 1-(4-Chlorophenyl)-5-(4-hydroxy-3-methoxyphenyl)pent-4-ene-1,3-dione]
- melting point: 57 to 63 °C

Compound: COc1cc(/C=C/C(=O)CC(=O)Cc2ccccc2)ccc1O [Compound 60, (E)-6-(4-Hydroxy-3-methoxyphenyl)-1-phenyl-hex-5-ene-2,4-dione]
- melting point: 106 °C

Compound: COc1cc(/C=C/C(=O)CC(=O)c2ccc(C)c(Cl)c2)ccc1O [Compound 98, (E)-1-(3-Chloro-4-methylphenyl)-5-(4-hydroxy-3-methoxyphenyl)pent-4-ene-1,3-dione]
- melting point: 70 to 72 °C
